The values that follow come from patent publication US20050004134A1, “Thiazole derivative and pharmaceutical use thereof” (priority 2001, published 2005).

Usually melting point stands for the temperature of the solid-liquid transition. The compound `CC(C)n1nc(-c2sc(C(=O)NCc3ccccc3)nc2-c2ccccc2)ccc1=O` [Example 220, N-Benzyl-5-(1-isopropyl-6-oxo-1,6-dihydro-3-pyridazinyl)-4-phenyl-1,3-thiazole-2-carboxamide] showed a melting point of 186 to 187 °C. In turn, `CC(=O)N1CCN(C(=O)c2nc(-c3ccccc3)c(-c3ccc(=O)n(C(C)C)n3)s2)CC1` [Example 219, 6-{2-[(4-Acetyl-1-piperazinyl)carbonyl]-4-phenyl-1,3-thiazol-5-yl}-2-isopropyl-3(2H)-pyridazinone] yielded a melting point of 78 to 82 °C. `CC(C)n1nc(-c2sc(NC(=O)Cn3ccnc3)nc2-c2ccccc2)ccc1=O` [Example 102, 2-(1H-Imidazol-1-yl)-N-[5-(1-isopropyl-6-oxo-1,6-dihydro-3-pyridazinyl)-4-phenyl-1,3-thiazol-2-yl]acetamide] had a melting point of 160 to 161 °C. Then `CC(C)n1nc(-c2sc(NC(=O)CNCCN3CCCCC3)nc2-c2ccccc2)ccc1=O.Cl.Cl`, with more than 250 °C; and `Cn1nc(-c2sc(C(N)=O)nc2-c2ccccc2)ccc1=O` [Example 159, 5-(1-methyl-6-oxo-1,6-dihydro-3-pyridazinyl)-4-phenyl-1,3-thiazole-2-carboxamide], with 231 to 232 °C; and `Cn1nc(-c2sc(C(=O)NC3CC3)nc2-c2ccccc2)ccc1=O` [Example 189, N-cyclopropyl-5-(1-methyl-6-oxo-1,6-dihydro-3-pyridazinyl)-4-phenyl-1,3-thiazole-2-carboxamide], with 163 to 164 °C. `CCn1nc(-c2sc(C(=O)NC3CC3)nc2-c2ccccc2)ccc1=O` [Example 190, N-cyclopropyl-5-(1-ethyl-6-oxo-1,6-dihydro-3-pyridazinyl)-4-phenyl-1,3-thiazole-2-carboxamide] returned a melting point of 144 to 145 °C. In turn, `CCOCCNCC(=O)Nc1nc(-c2ccccc2)c(-c2ccc(=O)n(C(C)C)n2)s1.Cl` yielded a melting point of 252 to 253 °C. The value for `CC(=O)N(C)c1nc(-c2ccccc2)c(-c2ccc(=O)n(C(C)C)n2)s1` [Example 22, N-[5-(1-isopropyl-6-oxo-1,6-dihydro-3-pyridazinyl)-4-phenyl-1,3-thiazol-2-yl]-N-methylacetamide] was 165 to 167 °C; that for `COCCNCC(=O)Nc1nc(-c2ccccc2)c(-c2ccc(=O)n(C(C)C)n2)s1.Cl` was 252 to 253 °C.

The compound `CC(C)n1nc(-c2sc(NC(=O)c3ccc(F)cc3)nc2-c2ccccc2)ccc1=O` [Example 48, 4-fluoro-N-[5-(1-isopropyl-6-oxo-1,6-dihydro-3-pyridazinyl)-4-phenyl-1,3-thiazol-2-yl]benzamide] gave a melting point of 225 to 226 °C.

For the compound `COCCn1nc(-c2sc(C(=O)NCc3ccccn3)nc2-c2ccccc2)ccc1=O` [Example 206, 5-[1-(2-Methoxyethyl)-6-oxo-1,6-dihydro-3-pyridazinyl]-4-phenyl-N-(2-pyridinylmethyl)-1,3-thiazole-2-carboxamide], the melting point fell in the range of 168 to 169.5 °C. The value for `CC(C)n1nc(-c2sc(C(=O)NCc3ccccn3)nc2-c2ccccc2)ccc1=O` [Example 210, 5-(1-isopropyl-6-oxo-1,6-dihydro-3-pyridazinyl)-4-phenyl-N-(2-pyridinylmethyl)-1,3-thiazole-2-carboxamide] was 176.5 to 177.5 °C. As for `CC(C)n1nc(-c2sc(NC(=O)CN(C)CCc3ccccn3)nc2-c2ccccc2)ccc1=O` [Example 111, N-[5-(1-Isopropyl-6-oxo-1,6-dihydro-3-pyridazinyl)-4-phenyl-1,3-thiazol-2-yl]-2-{methyl[2-(2-pyridinyl)ethyl]amino}acetamide], the melting point is 94 to 96 °C. The value for `CC(C)n1nc(-c2sc(NC(=O)c3cccc(F)c3)nc2-c2ccccc2)ccc1=O` [Example 36, 3-Fluoro-N-[5-(1-isopropyl-6-oxo-1,6-dihydro-3-pyridazinyl)-4-phenyl-1,3-thiazol-2-yl]benzamide] was 183 to 184 °C; that for `CC(C)n1nc(-c2sc(NC(=O)c3ccc(CN(C)CCN(C)C)cc3)nc2-c2ccccc2)ccc1=O` [Example 137, 4-{[[2-(Dimethylamino)ethyl] (methyl)amino]methyl}-N-[5-(1-isopropyl-6-oxo-1,6-dihydro-3-pyridazinyl)-4-phenyl-1,3-thiazol-2-yl]benzamide] was 131 to 133 °C; that for `CC(C)n1nc(-c2sc(NC(=O)Oc3ccccc3)nc2-c2ccccc2)ccc1=O` was 205 to 207 °C.

For `COCCNCc1ccc(C(=O)Nc2nc(-c3ccccc3)c(-c3ccc(=O)n(C(C)C)n3)s2)cc1` [Example 96, N-[5-(1-isopropyl-6-oxo-1,6-dihydro-3-pyridazinyl)-4-phenyl-1,3-thiazol-2-yl]-4-([(2-methoxyethyl)amino]methyl}benzamide], the melting point lay in the range of 192 to 194 °C.

Regarding `Cc1ccc(S(=O)(=O)NC(=O)Nc2nc(-c3ccccc3)c(-c3ccc(=O)n(C(C)C)n3)s2)cc1` [Example 12, N-({[5-(1-Isopropyl-6-oxo-1,6-dihydro-3-pyridazinyl)-4-phenyl-1,3-thiazol-2-yl]amino}carbonyl)-4-methylbenzene-sulfonamide], the melting point was in the range of 172 to 174 °C. Then `O=C(NC1CC1)c1nc(-c2ccccc2)c(-c2ccc(=O)n(Cc3ccccc3)n2)s1` [Example 194, 5-(1-benzyl-6-oxo-1,6-dihydro-3-pyridazinyl)-N-cyclopropyl-4-phenyl-1,3-thiazole-2-carboxamide], with 151 to 152.5 °C; and `CONC(=O)c1nc(-c2ccc(F)cc2)c(-c2ccc(=O)n(C(C)C)n2)s1` [Example 238, 4-(4-fluorophenyl)-5-(1-isopropyl-6-oxo-1,6-dihydro-3-pyridazinyl)-N-methoxy-1,3-thiazole-2-carboxamide], with 164.5 to 166.5 °C; and `CC(C)n1nc(-c2sc(NC(=O)c3ccccc3C(F)(F)F)nc2-c2ccccc2)ccc1=O` [Example 40, N-[5-(1-Isopropyl-6-oxo-1,6-dihydro-3-pyridazinyl)-4-phenyl-1,3-thiazol-2-yl]-2-(trifluoromethyl)benzamide], with 219 to 220 °C. Then `CC(C)n1nc(-c2sc(NC(=O)CNCc3ccccc3)nc2-c2ccccc2)ccc1=O` [Example 103, 2-(Benzylamino)-N-[5-(1-isopropyl-6-oxo-1,6-dihydro-3-pyridazinyl)-4-phenyl-1,3-thiazol-2-yl]acetamide], with 144 to 145 °C; and `CC(C)n1nc(-c2sc(NC(=O)c3ccc(CN(C)CCc4ccccn4)cc3)nc2-c2ccccc2)ccc1=O` [Example 147, N-[5-(1-Isopropyl-6-oxo-1,6-dihydro-3-pyridazinyl)-4-phenyl-1,3-thiazol-2-yl]-4-({methyl[2-(2-pyridinyl)ethyl]amino}methyl)benzamide], with 172 to 174 °C; and `CC(C)n1nc(-c2sc(C(=O)NCc3ccccn3)nc2-c2cccc(F)c2)ccc1=O` [Example 208, 4-(3-Fluorophenyl)-5-(1-isopropyl-6-oxo-1,6-dihydro-3-pyridazinyl)-N-(2-pyridinylmethyl)-1,3-thiazole-2-carboxamide], with 188 to 189.5 °C. Then `CC(C)n1nc(-c2sc(NCc3ccccc3)nc2-c2ccccc2)ccc1=O` [Example 65, 6-[2-(Benzylamino)-4-phenyl-1,3-thiazol-5-yl]-2-isopropyl-3 (2H)-pyridazinone], with 157 to 158 °C.

As for `CC(C)n1nc(-c2sc(NC(=O)c3ccc(C(F)(F)F)cc3)nc2-c2ccccc2)ccc1=O` [Example 39, N-[5-(1-Isopropyl-6-oxo-1,6-dihydro-3-pyridazinyl)-4-phenyl-1,3-thiazol-2-yl]-4-(trifluoromethyl)benzamide], the melting point fell in the range of 162 to 167 °C. The value for `CC(C)n1nc(-c2sc(NC(=O)CN(C)C)nc2-c2ccccc2)ccc1=O.Cl` was 232 to 234 °C; that for `CC(C)n1nc(-c2sc(NC(=O)c3ccccc3OC(F)(F)F)nc2-c2ccccc2)ccc1=O` [Example 53, N-[5-(1-Isopropyl-6-oxo-1,6-dihydro-3-pyridazinyl)-4-phenyl-1,3-thiazol-2-yl]-2-(trifluoromethoxy)benzamide] was 212 to 213 °C. Then `COc1ccc(C(=O)Nc2nc(-c3ccccc3)c(-c3ccc(=O)n(C(C)C)n3)s2)cc1` [Example 45, N-[5-(1-Isopropyl-6-oxo-1,6-dihydro-3-pyridazinyl)-4-phenyl-1,3-thiazol-2-yl]-4-methoxybenzamide], with 219 to 221 °C. The value for `CCOCCNCc1ccc(C(=O)Nc2nc(-c3ccccc3)c(-c3ccc(=O)n(C(C)C)n3)s2)cc1` [Example 145, 4-{[(2-Ethoxyethyl)amino]methyl}-N-[5-(1-isopropyl-6-oxo-1,6-dihydro-3-pyridazinyl)-4-phenyl-1,3-thiazol-2-yl]benzamide] was 153 to 154 °C; that for `CC(C)n1nc(-c2sc(NC(=O)CN3CCN(C)CC3)nc2-c2ccccc2)ccc1=O.Cl.Cl` was 244 to 246 °C.

`CCCNC(=O)c1nc(-c2ccccc2)c(-c2ccc(=O)n(CCC)n2)s1` [Example 172, 5-(6-oxo-1-propyl-1,6-dihydro-3-pyridazinyl)-4-phenyl-N-propyl-1,3-thiazole-2-carboxamide] yielded a melting point of 121 to 122 °C. Regarding `CC(C)NC(=O)c1nc(-c2cccc(F)c2)c(-c2ccc(=O)n(C(C)C)n2)s1` [Example 185, 4-(3-fluorophenyl)-N-isopropyl-5-(1-isopropyl-6-oxo-1,6-dihydro-3-pyridazinyl)-1,3-thiazole-2-carboxamide], the melting point was in the range of 103.5 to 105.5 °C. The value for `CC(C)n1nc(-c2sc(C(=O)NC3CCCCC3)nc2-c2ccccc2)ccc1=O` [Example 225, N-Cyclohexyl-5-(1-isopropyl-6-oxo-1,6-dihydro-3-pyridazinyl)-4-phenyl-1,3-thiazole-2-carboxamide] was 225 to 226 °C; that for `CC(C)n1nc(-c2sc(NC(=O)c3cccc4ccccc34)nc2-c2ccccc2)ccc1=O` [Example 31, N-[5-(1-Isopropyl-6-oxo-1,6-dihydro-3-pyridazinyl)-4-phenyl-1,3-thiazol-2-yl]-1-naphthamide] was 223 to 224 °C.
